Assay results reported in ChEMBL document CHEMBL3507680, “University of Dundee, Gates Library screen for HepG2 cell viability”.

Test: Human HepG2 cell viability assay in 384 well format
Type: toxicity, cell-based
Set-up: dose 125 nL, time 70.5 hour; concentration not given beside the values
Details: HepG2 cells, read-out: Inhibition

For CC(O)c1cn(CC2CCN(C(=O)CN3CCCC3=O)CC2)nn1 (configuration not stated), the cytotoxicity at 70.5 h was -10.1%.

For COc1ccc(C2CCCN2C(=O)NCCn2ccnc2)cc1OC (configuration not stated), the cytotoxicity at 70.5 h was 0.318%.

Cc1cnn(CC2CCCN2Cc2nc3ccccc3nc2C)c1 (configuration not stated) showed a cytotoxicity at 70.5 h of -7.74%.

CC(C)COc1ccc(C2SCC(=O)Nc3c2c(=O)[nH]n3C(C)C)cc1 (configuration not stated) gave a cytotoxicity at 70.5 h of -4.59%.

With Cc1cc(NCc2cccc(C#N)c2)ccc1Br the cytotoxicity at 70.5 h was -7.27%.

Work on CCOc1cc(NC(=O)N2CCOC3(CCC3)C2)ccc1C yielded a cytotoxicity at 70.5 h of -5.84%.

Molecule O=C(NC1CCCN(CCCc2ccccc2)C1)c1ccc(Cl)s1 (configuration not stated) has a cytotoxicity at 70.5 h of -4.66%.

Cc1nc(-c2cn(CCN)nn2)n(-c2ccc3c(c2)CCC3)n1 showed a cytotoxicity at 70.5 h of -4.36%.

Molecule CCOc1cccc(CNc2cnn(CC(C)C)c2CC)c1 has a cytotoxicity at 70.5 h of -7.62%.

With CC(C)N1CCCn2nc(C(=O)NCc3ccccc3F)cc2C1 the cytotoxicity at 70.5 h was -5.27%.

In the case of N#CC1(NC(=O)c2ccn(-c3ccccc3Cl)n2)CCSC1 (configuration not stated), the cytotoxicity at 70.5 h is reported as -10.3%.

In the case of CSCC(C)(O)CNc1ccccn1 (configuration not stated), the cytotoxicity at 70.5 h is reported as -1.72%.

With CC(=O)c1cc(Br)cc(F)c1OCC(=O)NC1CC1 the cytotoxicity at 70.5 h was 0.481%.

CN(CCCOc1ccccc1)C(=O)c1csc(-c2nnc[nH]2)n1 gave a cytotoxicity at 70.5 h of -5.84%.

For CC(C(=O)N1CCCC1)S(=O)(=O)Cc1nc(C(C)(C)C)no1 (configuration not stated), the cytotoxicity at 70.5 h was -8.31%.

Work on CCOCc1nn(C)c2c1CN(C(=O)c1ccno1)CC2 yielded a cytotoxicity at 70.5 h of -4.99%.

For CNC(=O)c1c(C)cccc1NCc1nnc(C2CC2)o1, the cytotoxicity at 70.5 h was -2.15%.

For O=C(c1ccco1)N1CCc2onc(Cn3cccn3)c2C1, the cytotoxicity at 70.5 h was -7.44%.

Work on Cc1nn(C(C)C)c(C)c1S(=O)(=O)Nc1cccc(C(=O)O)c1 yielded a cytotoxicity at 70.5 h of -5.93%.

Cc1cccc2sc(NC(=O)CN3CCCC4(CC3)CNC(=O)O4)nc12 (configuration not stated) gave a cytotoxicity at 70.5 h of -7.84%.

For O=C(O)c1c(-c2ccoc2)ncc2c1CCN(C1CCOC1)C2 (configuration not stated), the cytotoxicity at 70.5 h was -2.3%.

Work on Cc1cc(NCc2cccc(C#N)c2)ccc1C(N)=O yielded a cytotoxicity at 70.5 h of 2.79%.

For N#Cc1cc(F)c(NCCCOCC2CCOC2)c(F)c1 (configuration not stated), the cytotoxicity at 70.5 h was 7.98%.

CC(C)c1nncn1CCNC(=O)c1c(O)cc(F)cc1F gave a cytotoxicity at 70.5 h of -4.67%.

Molecule CS(=O)(=O)N1CCC2(CCCN(Cc3ccccn3)C2)CC1 has a cytotoxicity at 70.5 h of 10.3%.

Work on CC(=O)NCCc1ccc(S(=O)(=O)N(C)C(C)C(C)(C)C)s1 (configuration not stated) yielded a cytotoxicity at 70.5 h of -9.01%.

Work on N#Cc1cccnc1N1CCCC(CO)(Cc2ccccc2F)C1 (configuration not stated) yielded a cytotoxicity at 70.5 h of -4.89%.

CCc1cnc2c(c1Nc1ccc3c(c1)OCO3)c(=O)n(C)c(=O)n2C showed a cytotoxicity at 70.5 h of -1.57%.

Molecule Cc1ccc(CN2Cc3c(cnn3C)C(COCC3CC3)C2)s1 (configuration not stated) has a cytotoxicity at 70.5 h of 35.1%.

CC(C)(O)CCc1cccc(C(=O)NCc2nccs2)c1 showed a cytotoxicity at 70.5 h of 3.29%.

With CCN1CCN(S(=O)(=O)c2c[nH]c(C(C)C)n2)c2ccccc21 the cytotoxicity at 70.5 h was -5.4%.

CC(=O)N1CCc2nnc(C3CCCCN3CC3CC3)n2CC1 (configuration not stated) showed a cytotoxicity at 70.5 h of -13%.

For CCN(CC)S(=O)(=O)c1ccc2c(c1)N(Cc1ccncc1)C(=O)CS2, the cytotoxicity at 70.5 h was -3.41%.

Cc1nnc(N2CCOC(Cn3cccn3)C2)c(C#N)c1C (configuration not stated) gave a cytotoxicity at 70.5 h of -8.57%.

In the case of CCn1c(N)nc2cc(C(=O)N3CCN(c4ccncc4)CC3)cnc21, the cytotoxicity at 70.5 h is reported as -2.2%.

Cc1cccc(C2(NCCCS(C)(=O)=O)CCCC2)c1 showed a cytotoxicity at 70.5 h of -6.96%.

c1ccc(CN2CCCC(CNc3ncnc4c3CCNCC4)C2)cc1 (configuration not stated) showed a cytotoxicity at 70.5 h of -6.09%.

CC(Cn1cncn1)NCc1ccc2nonc2c1 (configuration not stated) showed a cytotoxicity at 70.5 h of -5.99%.

For NC(=O)CCn1ccc(NC(=O)C2(c3ccc(F)cc3)CCC2)n1, the cytotoxicity at 70.5 h was 1.99%.

In the case of CNC(=O)CSc1nc2c(cnn2Cc2ccc(F)cc2)c(=O)[nH]1, the cytotoxicity at 70.5 h is reported as 13.5%.

With Cc1nn(C)c(C)c1C1CCCN1c1ncnc2sccc12 (configuration not stated) the cytotoxicity at 70.5 h was 3.73%.

Work on Cn1c(C2CC2)nc2c1CCN(CC(=O)NC1CCCCNC1=O)C2 (configuration not stated) yielded a cytotoxicity at 70.5 h of -7.85%.

OC(CN(Cc1ccccc1)Cc1ccccn1)c1cccs1 (configuration not stated) showed a cytotoxicity at 70.5 h of -11%.

CCS(=O)(=O)N1CCN(C(C)(C)CO)CC1 gave a cytotoxicity at 70.5 h of -3.71%.

Molecule Cc1noc(C)c1CN1C[C@H](OCC(=O)N(C)C)[C@H]2COC[C@H]21 has a cytotoxicity at 70.5 h of -6.89%.

Work on Cc1cccc(CN2C[C@@H]3COC[C@]3(CNC(=O)C3CCC3)C2)c1 yielded a cytotoxicity at 70.5 h of -7.15%.

Molecule CC(C)[C@H]1CN(c2ccncc2)C[C@@H]1NC(=O)C1(C#N)CCOCC1 has a cytotoxicity at 70.5 h of -8.3%.

For COc1ccc(CN2C[C@@H]3CN(S(=O)(=O)C4CC4)C[C@@H]3C2=O)cc1, the cytotoxicity at 70.5 h was -9.53%.

Work on Cc1c(C(=O)NC2CCCC2)nnn1-c1ccccc1 yielded a cytotoxicity at 70.5 h of -8.58%.

Cc1ccc(C)c(-c2csc(N)c2C#N)c1 gave a cytotoxicity at 70.5 h of -3.45%.

For CS(=O)(=O)c1cncnc1C1CCCNC1 (configuration not stated), the cytotoxicity at 70.5 h was -8.78%.

For CCN1CCN(C[C@@H]2CN(c3ncccc3Cl)C[C@@H]2CO)CC1, the cytotoxicity at 70.5 h was -3.91%.

In the case of CC(=O)N1CCCC(C(=O)c2cnn(-c3ccc(F)cc3)c2N)C1 (configuration not stated), the cytotoxicity at 70.5 h is reported as -2.75%.

Cc1cc2[nH]c(CN3CCOC(C(F)(F)F)C3)cc(=O)n2n1 (configuration not stated) gave a cytotoxicity at 70.5 h of 17.8%.

O=C1CC2(CCN(Cc3ccoc3)C2)CN1c1ccc2c(c1)OCO2 (configuration not stated) showed a cytotoxicity at 70.5 h of 3.34%.

COc1ccc(C(=O)C2CCCN(c3nccc(N)n3)C2)c(C)c1 (configuration not stated) showed a cytotoxicity at 70.5 h of -4.73%.

In the case of CCCNC(=O)Nc1ncc(-c2cccnc2)s1, the cytotoxicity at 70.5 h is reported as -9.71%.
